Data taken from article PMC10600239, “Selective MCL-1 inhibitor ABBV-467 is efficacious in tumor models but is associated with cardiac troponin increases in patients” (Communications Medicine, 2023).

System: AMO-1 xenografts
Experiment: AMO-1 xenograft efficacy (tumor volume, body weight)
Format: in vivo, mouse
Conditions: SCID-beige mice bearing AMO-1 (DSMZ) flank xenografts; IV, Q7Dx2, 6.25-25 mg/kg; 5% DMSO, 10% cremophor EL, 85% D5W
Protocol: All animal studies were conducted in accordance with the guidelines approved by the Institutional Animal Care and Use Committees of AbbVie. The research protocol was approved by In Vivo Pharmacology at AbbVie prior to study initiation but was not publicly registered or disclosed. Female C.B-17 SCID-beige mice (AMO-1, OPM-2, NCI-H929, and OCI-AML2 xenografts) and female NSG mice (MV4-11-Red.Fluc systemic) were purchased from Charles River Laboratories (Wilmington, MA). Animals were housed in a light cycle-controlled room with HEPA filtration at 22 °C. Animals had nesting and climbing cage topper as the primary environmental enrichment. Animals were inoculated subcutaneously in the right flank with 5 × 10^6 (AMO-1, OPM-2, NCI-H929, and OCI-AML2) or intravenous (IV) with 5 × 10^6 (MV4-11-Red.Fluc). The inoculation volume (0.2 mL) comprised a 50:50 mixture of cells in growth media and Matrigel (BD Biosciences) for subcutaneous injections and 100% phosphate-buffered saline for IV administration. All cell lines used in this publication were authenticated using IDEXX for STR profiling as well as their IMPACT and human IMPACT panels for pathogen screening. Electronic calipers were used to measure the length and width of each tumor 2 to 3 times per week. Tumor volume was estimated by applying the following equation: volume = length × width^2/2. All groups remained blinded during measurements and dosing; only veterinary staff were aware of group identity. When tumors reached approximately 200 mm^3, mice were randomized by match and distributed into treatment and control groups. All xenograft trials were conducted using 5 to 10 mice per group, and all mice were ear tagged and monitored individually throughout the studies. […] Tumor burden in the systemic MV4-11-Red.Fluc experiment was measured using an IVIS® spectrum from PerkinElmer by taking the total photon flux of the entire dorsal side of an individual mouse. […] A background control mouse that was tumor naive but received D-Luciferin was placed in the upper left corner of each image. The total flux from this animal was subtracted from the total flux of each animal present in the image.
For in vivo studies, maximal tumor growth inhibition (TGI) was calculated as the greatest treatment response using the following equation: Maximal TGI = (1 − mean tumor volume of the treated group/mean tumor volume of the vehicle control group) × 100. The tumor growth delay (TGD) percentage was determined as the percentage increase of the median time period for the treatment group to reach an arbitrary tumor volume of 1000 mm^3 relative to the vehicle control group. […] A power analysis was conducted using historical data to determine the number of animals required to yield significance of 0.05 at a 30% difference. […] Data from experiments in vivo were analyzed using the student’s t-test for TGI values and the Mann–Whitney U test for TGD using Excel and GraphPad Prism. Fisher’s exact test was used to probe significance of differences in response frequency.

Question: For `Cc1c(Cl)c2c(Cl)c(C)c1-c1c(-c3ccc(F)cc3)sc3ncnc(c13)O[C@@H](C(=O)O)Cc1cc(ccc1OCc1ccnc(-c3ccc(OC[C@H]4COCCO4)cc3)n1)OC[C@@H](CN1CCN(C)CC1)O2` [Compound A-1747745], which “Results: toxicity following iv injection” value is on record?
Answer: A-1747745 and A-1746463 showed lethal toxicity due to drug precipitate folowing iv injection.
